Assays:
Nitric oxide (NO) = assay: In vivo nitric oxide estimation in serum of LPS challenged mice; set-up: species or system balb/c mice; settings: 1, 2.5, 5 and 10 mg/kg oral for 6 days, LPS 1 mg/kg i.v., serum 90 min after LPS
Experimental: Invivo experiments were carried out using balb/c mice that were orally administrated with graded oral doses of AD-B-63B (1, 2.5, 5 and 10 mg/kg) for 6 days and challenged with LPS. Nitric oxide (NO) is an important mediator of diverse physiologic and pathologic processes, including many inflammatory diseases [Abramson S B, Amin A R, Clancy R M, Attur M, (2001). The role of nitric oxide in tissue destruction. Best Practice & Research Clinical Rheumatology; 15: 831-845]. Several lines of evidence implicate NO in the pathogenesis of inflammation. For example, rodents in animal models of arthritis generate abundant quantities of NO, as reflected in high levels of serum and urinary NO that develop in association with disease manifestations [Stefanovic-Racic M, Meyers K, Meschter C, Coffey J W, Hoffman R A, Evans C H, (1994). Monomethyl arginine, an inhibitor of nitric oxide synthase, suppresses the development of adjuvant arthritis in rats. Arthritis & Rheumatism; 37: 1062-1069.] [McCartney-Francis N, Allen J B, Mizel D E, Albina J E, Xie Q W, Nathan C F, Wahl S M, (1993). Suppression of arthritis by an inhibitor of nitric oxide synthase. Journal of Experimental Medicine; 178: 749-754.] [Weinberg J B, (1998). […] TNF-α, IL-1 beta and Nitric oxide production was evaluated by a commercial ELISA kits (R&D Systems) in serum from AD-B-63B treated mice, 90 min after LPS injection.

CD8+ T cells = assay: Lymphocyte immunophenotyping, CD8+ T cell population in SRBC immunised mice; assay type: in vivo, Swiss albino mice; settings: graded doses; most significant suppression at 5 and 10 mg/kg vs sensitized control
From the text: Immunophenotyping focuses on lymphocyte populations involved in acquired immunity. Specific molecules present on the cell surface defines characteristics of lymphocytes such as state of activation or functional capabilities. Murine monoclonal antibodies conjugated to a fluorochrome and directed against co-receptors CD4 and CD8 were used in a multi parametric flowcytometric assay to quantify the lymphocyte subsets associated with the cell-mediated immune response.
Estimation of T cell surface markers: On day 0, mice were immunized by injecting 200 μl of 5×10^9 SRBC/ml intraperitonially. Drug administration was carried out for 6 days including the day of immunization. Same amount of SRBC was used to challenge the animals on day 7. After 24 h of challenge, blood was taken from retro-orbital plexus of animals for estimation of CD4^+ and CD8^+ T cells. 100 μl of whole blood was taken in each tube and FITC (fluorescein isothiocyanate) labelled CD4+ and PE (phycoerythrin) labelled CD8+ monoclonal antibodies were added and mixed gently. Tubes were incubated in the dark for 30 min. at room temperature. Subsequently, 2 ml of 1× FACS lysing solution was added at room temperature with gentle mixing. Samples were again incubated at room temperature for 10 min. […]

Question: What does the source list for `CC(=O)OC(C)(C)/C=C/C(=O)[C@](C)(O)[C@H]1[C@H](O)C[C@@]2(C)[C@@H]3CC=C4[C@@H](C=C(O[C@@H]5O[C@H](CO)[C@@H](O)[C@H](O)[C@H]5O)C(=O)C4(C)C)[C@]3(C)C(=O)C[C@]12C` [AD-B-63B, 2-O-β-D-glucopyranosyl cucurbitacin E]?
Answer: Level of serum NO (Nitric oxide (NO)): significant reduction; percentage of CD8+ T-cell population (CD8+ T cells): decrease

Source: US20130136772A1, “REGULATION OF IMMUNE RESPONSE BY COLOCYNTHIN AND/OR ITS DERIVATIVES” (priority 2010, published 2013)
